# Measured values reported in publication PMC6105804, “In Vitro and In Vivo Evaluation of APX001A/APX001 and Other Gwt1 Inhibitors against Cryptococcus” (Antimicrobial Agents and Chemotherapy, 2018).
# Read-outs that look alike come from different tables or passages of the source.
# Legend:
# C. neoformans [1] = test: Broth microdilution susceptibility testing (CLSI M27-A3); assay type: cell-based, Cryptococcus neoformans; settings: Cryptococcus neoformans
# Method in brief: (§1)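 CLSI broth microdilution (M27-A3 yeasts, M38-A2 molds), final 2 to 0.002 µg/ml, 35 °C for 40-48 h (C. albicans, A. fumigatus) or 72 h (C. neoformans). MIC for yeasts at 50% growth reduction versus DMSO control. A. fumigatus endpoint is MEC, lowest concentration shortening hyphae.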
# C. gattii = test: as above; assay type: cell-based; settings: Cryptococcus gattii
# Method in brief: as §1
# C. albicans 90028 = test: as above; assay type: cell-based, Candida albicans; settings: Candida albicans, 90028; read-out: MIC, C. albicans 90028
# Method in brief: as §1
# A. fumigatus MYA3626 = test: Broth microdilution susceptibility testing for molds (CLSI M38-A2); assay type: cell-based; settings: Aspergillus fumigatus, MYA3626; read-out: MIC or MEC for A. fumigatus MYA3626
# Method in brief: as §1
# [2] = system: FLC-susceptible and FLC-nonsusceptible/resistant strains of C. neoformans and C. gattii; test: Broth microdilution, summary over the 18-strain Cryptococcus collection; assay type: cell-based, Cryptococcus neoformans and Cryptococcus gattii; settings: 18 strains of C. neoformans and C. gattii; for MIC: read-out: Geometric mean MIC
# Method in brief: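 CLSI M27-A3 broth microdilution was run with final drug concentrations of 2 to 0.002 μg/ml from DMSO dilutions, incubated at 35°C for 72 h for C. neoformans. MIC was the lowest concentration giving 50% growth reduction versus the no-drug control, read with a mirror.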
# C. neoformans H99 = test: Microtiter checkerboard synergy with FLC; assay type: cell-based, Cryptococcus neoformans; settings: in combination with FLC, MIC read at 50% inhibition, synergy FICI < 0.5
# Experimental: An important consideration for developing a new treatment for CM is the potential for inclusion in combination therapy. We evaluated the synergy of APX001A and APX2020 in combination with FLC using standard microtiter dilution techniques ([33]). […] Importantly, no antagonism was observed.
# To establish the antimicrobial activity of the APX001A analogs, broth microdilution susceptibility testing was performed according to Clinical and Laboratory Standards Institute (CLSI) guidelines M27-A3 ([47]) for yeasts and M38-A2 for molds ([48]). APX001A and analogs were first diluted in DMSO to obtain intermediate dilutions. These were further diluted in microtiter plates to obtain a final concentration of 2 to 0.002 μg/ml. One microliter of DMSO was added to the no-drug control wells. The solutions were mixed on a plate shaker for 10 min, and the plates were incubated at 35°C for 40 to 48 h (C. albicans, A. fumigatus) and 72 h (C. neoformans). The minimum concentration that led to a 50% reduction in fungal growth compared to that for the control (determined with the aid of a reading mirror) was determined as the MIC for C. albicans and C. neoformans. The minimum concentration that led to the shortening of hyphae compared to the hyphal growth in DMSO control wells was determined as the minimum effective concentration (MEC) for A. fumigatus (as read for the echinocandins). […]
# [3] = Single-dose mouse pharmacokinetics of prodrugs with or without ABT; assay type: in vivo; settings: for AUC: male, CD-1, mouse, plasma, 26 mg/kg
# Experimental: The area under the curve (AUC) was calculated from time zero to the time of the last measurable concentration. The active metabolite concentrations in plasma (APX001A, APX2039, APX2020, and APX2041) were determined by liquid chromatography-tandem mass spectrometry. PK parameters were determined using Phoenix WinNonlin (v7.0) software and a noncompartmental model.
# PIGW protein = system: PIGW protein; parameters: method as in PMID 22143530; settings: closest mammalian ortholog of fungal Gwt1; cited from earlier work
# [4] = system: Candida tropicalis strains; parameters: method as in ref 24 = [24]; 24. Watanabe NA , Horii T , Miyazaki M , Hata K 2011 In vitro activity of E1210 and in vivo activity of E1211, a water-soluble prodrug of E1210, in combination with other antifungals, abstr F1-1378 .; settings: cited from earlier work
# strains of C. albicans = system: strains of C. albicans; parameters: method as in ref 24 = [24]; 24. Watanabe NA , Horii T , Miyazaki M , Hata K 2011 In vitro activity of E1210 and in vivo activity of E1211, a water-soluble prodrug of E1210, in combination with other antifungals, abstr F1-1378 .; settings: cited from earlier work
# C. neoformans [5] = system: C. neoformans; parameters: method as in PMID 23740727; settings: 46 strains of C. neoformans, global study; cited from earlier work
# [6] = 72 h, Table 1, 50% growth inhibition for FLC, caspofungin and APX compounds, 100% for AMB, 72 h, read-out: MIC, C. neoformans H99
# [7] = C. neoformans isolate 14116, read-out: MIC
# [8] = C. neoformans isolate 76484, read-out: MIC
# [9] = C. neoformans isolate DUMC 118.00 (FLC resistant), read-out: MIC
# [10] = C. neoformans isolate DUMC 158.03 (FLC resistant), read-out: MIC
# [11] = C. neoformans isolate MYA-4564, read-out: MIC
# [12] = C. neoformans isolate MYA-4565, read-out: MIC
# [13] = C. neoformans isolate MYA-4566, read-out: MIC
# [14] = C. neoformans isolate MYA-4567, read-out: MIC
# [15] = Table 2, C. neoformans isolate H99, read-out: MIC
# [16] = C. gattii isolate MYA-4093, read-out: MIC
# [17] = C. gattii isolate MYA-4094, read-out: MIC
# [18] = C. gattii isolate MYA-4560 (first listing, r17), read-out: MIC
# [19] = C. gattii isolate MYA-4560 (second listing, r21), read-out: MIC
# [20] = C. gattii isolate MYA-4561, read-out: MIC
# [21] = C. gattii isolate MYA-4562, read-out: MIC
# [22] = C. gattii isolate MYA-4563, read-out: MIC
# [23] = C. gattii isolate MYA-4877, read-out: MIC
# [24] = C. gattii isolate RSA-MW-3615 (FLC resistant), read-out: MIC
# [25] = Table 1, 50% growth inhibition for FLC, caspofungin and APX compounds, 100% for AMB, read-out: MIC, C. gattii WM276
SMILES,MIC (C. neoformans [1]; [6]),MIC (C. neoformans [1]; [7]),MIC (C. neoformans [1]; [8]),MIC (C. neoformans [1]; [9]),MIC (C. neoformans [1]; [10]),MIC (C. neoformans [1]; [11]),MIC (C. neoformans [1]; [12]),MIC (C. neoformans [1]; [13]),MIC (C. neoformans [1]; [14]),MIC (C. neoformans [1]; [15]),MIC (C. gattii; [16]),MIC (C. gattii; [17]),MIC (C. gattii; [18]),MIC (C. gattii; [19]),MIC (C. gattii; [20]),MIC (C. gattii; [21]),MIC (C. gattii; [22]),MIC (C. gattii; [23]),MIC (C. gattii; [24]),MIC (C. gattii; [25]),other results
Nc1ncccc1-c1cc(Cc2ccc(COc3ccccn3)cc2)no1 [APX001A],0.25 µg/mL,0.125 µg/mL,0.125 µg/mL,0.25 µg/mL,0.25 µg/mL,0.125 µg/mL,0.5 µg/mL,0.25 µg/mL,0.25 µg/mL,0.125 µg/mL,0.5 µg/mL,0.25 µg/mL,0.25 µg/mL,0.25 µg/mL,0.5 µg/mL,0.25 µg/mL,0.5 µg/mL,0.25 µg/mL,0.125 µg/mL,0.125 µg/mL,"MIC (C. albicans 90028): 0.008 µg/mL; MIC (A. fumigatus MYA3626): 0.016 µg/mL; MIC90 [2]: 0.5 µg/mL; MIC [2]: 0.241 µg/mL; fractional inhibitory concentration index (FICI) (C. neoformans H99): 0.37; Ratio of AUC with ABT/AUC without ABT, i.p. dosing ([3]; 26 mg/kg prodrug): 5.6; Ratio of AUC with ABT/AUC without ABT, p.o. dosing ([3]; 26 mg/kg prodrug): 15.0; AUC ([3]; intraperitoneal, AUC of analyte after 26 mg/kg prodrug, 100 mg/kg ABT orally 2 h before, read-out: Avg AUC resulting from 26-mg/kg dose, i.p. dosing + ABT): 24300 ± 17700 ng·h/mL; AUC ([3]; ip, AUC of analyte after 26 mg/kg of the corresponding prodrug, male CD-1 mice, no ABT, read-out: Avg AUC resulting from 26-mg/kg dose, i.p. dosing): 4360 ± 110 ng·h/mL; AUC ([3]; po, AUC of analyte after 26 mg/kg prodrug, 100 mg/kg ABT orally 2 h before, read-out: Avg AUC resulting from 26-mg/kg dose, p.o. dosing + ABT): 41500 ± 8090 ng·h/mL; AUC ([3]; po, AUC of analyte in plasma after 26 mg/kg of the corresponding prodrug, male CD-1 mice, no ABT, read-out: Avg AUC resulting from 26-mg/kg dose, p.o. dosing): 2760 ± 230 ng·h/mL; sensitivity of PIGW protein to inhibition (PIGW protein): not sensitive to inhibition; strains with synergy with FLC [4]: 9 of 10; strains with synergy with FLC (strains of C. albicans): 2 of 20"
"OC(Cn1cncn1)(Cn1cncn1)c1ccc(F)cc1F [FLC, fluconazole, reference compound]",2 µg/mL,4 µg/mL,4 µg/mL,64 µg/mL,32 µg/mL,4 µg/mL,1 µg/mL,2 µg/mL,1 µg/mL,1 µg/mL,2 µg/mL,2 µg/mL,1 µg/mL,1 µg/mL,4 µg/mL,2 µg/mL,4 µg/mL,4 µg/mL,64 µg/mL,1 µg/mL,MIC (C. albicans 90028): 0.5 µg/mL; MIC (A. fumigatus MYA3626): > 16 µg/mL; MIC90 [2]: 64 µg/mL; MIC [2]: 3.56 µg/mL; MIC90 (C. neoformans [5]): 4 µg/mL
